In PMC6494879, “Drug resistance emergence in macaques administered cabotegravir long-acting for pre-exposure prophylaxis during acute SHIV infection” (Nature Communications, 2019):

How the values were obtained:
[1] = test system: SIV integrase G140R (SIV IN RTV pseudovirus); assay: organism not typed; format: cell-based; conditions: HEK293
[2] = test system: SIV integrase A122T (SIV IN RTV pseudovirus); assay: organism not typed; format: cell-based
[3] = test system: SIV integrase WT (SIV IN RTV pseudovirus); assay: organism not typed; format: cell-based
[4] = test system: SIV integrase G118R (SIV IN RTV pseudovirus); format: cell-based; conditions: G118R SIV integrase mutant
in vivo = conditions: Indian, rhesus monkey
Experimental: CAB LA (200 mg/mL injectable stock aqueous suspension) was given at a dose of 50 mg kg^−1 under anesthesia by intramuscular injection into the quadriceps. Volumes greater than 1.0 mL were divided into two injection sites.

[5] = test system: SIV integrase I250V (SIV IN RTV pseudovirus); assay: organism not typed; format: cell-based
[6] = test system: SIV integrase I72T (SIV IN RTV pseudovirus); assay: organism not typed; format: cell-based
[7] = test system: SIV integrase I110V (SIV IN RTV pseudovirus); assay: organism not typed; format: cell-based
[8] = test system: SIV integrase Q124R (SIV IN RTV pseudovirus); assay: organism not typed; format: cell-based
[9] = test system: SIV integrase G118R/A122T (SIV IN RTV pseudovirus); format: cell-based; conditions: G118R/A122T SIV integrase mutant

C[C@H]1CO[C@@H]2Cn3cc(C(=O)NCc4ccc(F)cc4F)c(=O)c(O)c3C(=O)N12 [CAB, cabotegravir]
EC50 [1]: > 1000 nM | EC50 ([2]; HEK293): 1.51 nM | fold-change relative to wild type integrase ([2]; {}): 1.3 fold | EC50 ([3]; HEK293): 1.19 nM | fold-change relative to wild type integrase ([3]; WT SIV integrase): 1 fold | fold-change relative to wild type integrase [4]: > 840 fold | half-life (in vivo): 10.7 days | EC50 ([5]; HEK293): 1.04 nM | fold-change relative to wild type integrase ([5]; {}): 0.9 fold | EC50 ([6]; HEK293): 0.96 nM | fold-change relative to wild type integrase ([6]; {}): 0.8 fold | EC50 ([7]; HEK293): 1.27 nM | fold-change relative to wild type integrase ([7]; {}): 1.1 fold | EC50 ([8]; HEK293): 1.22 nM | fold-change relative to wild type integrase ([8]; {}): 1.0 fold | fold-change relative to wild type integrase [9]: > 840 fold
